Measured values as given in US20210379046A1, “Methods of Treating Diseases Using Kinase Modulators” (Memorial Sloan Kettering Cancer Center, priority 2018, published 2021).

Tests used:
Karpas 299 cells = assay: Flow cytometry of cell surface HLA and checkpoint ligands on Karpas 299 cells; format: cell-based, human
Experimental: (§1) If adherent cells, they were seeded one day before treatment.

SUDHL-1 cells = assay: Flow cytometry of cell surface HLA on SUDHL-1 cells; format: cell-based, human; details: SUDHL-1, 72 hrs, increasing concentrations
Experimental: as §1

pERK in Karpas 299 cells = assay: Western blot of pERK in Karpas 299 cells; format: cell-based, human; details: Karpas 299, 3 hrs
Experimental: (§2) Cells were seeded in a 60 mm dish or 6 well plates. After the appropriate time point, cells were harvested and lysed and protein was quantified by a Lowry assay (Bio-Rad DC Protein Assay; #5000116). Protein levels were normalized and run on SDS PAGE gels (Bio-Rad). Protein was transferred to a nitrocellulose membrane using semi-dry transfer. Membrane was blocked and incubated with respective antibodies. When needed, secondary antibodies with HRP were incubated for 1 hr.
(§3) Cells were seeded in a 60 mm dish or 6 well plates. After the appropriate time point, cells were harvested, lysed in RIPA buffer (Thermo Instruments) and protein concentration was quantified by a Lowry assay (using the Bio-Rad DC Protein Assay; #5000116 on a Spectramax device from Molecular Devices). Protein loading levels were equalized per lane and separated on SDS gels (Bio-Rad). Protein was transferred to a nitrocellulose membrance using semi-dry transfer (BioRad). Membranes were blocked with Omniblock (American Bio) and incubated with respected antibodies. When needed, secondary antibodies with HRP were incubated for 1 hr.

pERK in SUDHL-1 cells = assay: Western blot of pERK in SUDHL-1 cells; format: cell-based, human; details: SUDHL-1, 3 hrs
Experimental: as §2, §3

Karpas 299 tumors = assay: Karpas 299 subcutaneous tumors in mice, tumor HLA and PD-L1 by flow cytometry; format: in vivo
Experimental: Female NSG (NOD.Cg-Prkdc^scidIl2rg^tm1Wj1/SzJ) and NRG (NOD.Cg-Rag1^tm1MomIl2rg^tm1Wj1/SzJ) mice were purchased from the Jackson Laboratory or MSKCC breeding facility at 5-10 weeks old. For RET and ALK experiments, 2.5-6×10^6 tumor cells were subcutaneously injected into the flank of mice and when tumors were palpable, mice were treated daily with drug or vehicles through oral gavage. At day 7, tumors were harvested and flow cytometry was run to determine effect of inhibitors on HLA and PD-L1 on the tumor cells.
The highly immunodeficient NRG (NOD-Rag1null IL2rgnull) mice were subcutaneously injected with 2.5×10^6 luciferase tagged TPC1 cells in their right flank. […] Afterwards, cells were immediately harvested and stained with antibodies against HLA-A*02:01 and HLA-ABC.
All animal experiments were conducted in accordance with and the approval of the MSKCC IACUC (Institutional Animal Care and Use Committee) protocols. Female NSG (NOD. Cg-Prkdc^scidIl2rg^tm1Wj1/SzJ) and NRG (NOD.Cg-Rag1^tm1MomIl2rg^tm1Wj1/SzJ) mice were purchased from the Jackson Laboratory at 5-10 weeks old. For experiments in vivo with RET and ALK, 2.5-6×10^6 tumor cells in PBS were subcutaneously injected into the flank of mice. When tumors were palpable (2-3 mm), mice were treated daily with drugs or vehicles through oral gavage of drugs in 200 ul of water. At day 4 or 7, tumors were harvested and flow cytometry was conducted to determine the effect of inhibitors on HLA and PD-L1 on the tumor cells. […] TPC1 cells were transduced with luciferase and GFP on an SFG vector and this allowed gating of the tumor cells in flow cytometry.

Karpas299 cells = assay: Luminex cytokine secretion, Karpas299 cells; format: cell-based, human; details: Karpas299, 100 nm alectinib
Experimental: Supernatant media were harvested after treatment and analyzed by the Luminex device (Luminex Corporation, Austin, Tex.) for relevant cytokine secretion. […] On the left side of each panel is data after 24 hours. On the right side of each panel is data after 48 hours. […] The data points shown in this figure are in pairs for each condition. The data point pairs for each time point are, from left to right: DMSO, Rux, Alec, IFNg, and IFNg+Rux.

SUP-M2 cells = assay: PD-L1 levels in vitro on SUP-M2 cells
Experimental: 5×10^4 cells were seeded in a 12 well plate and treated with drug for 72 hrs. Adherent cells were seeded one day before treatment. At 72 hrs, cells were harvested, washed with PBS and incubated on ice with appropriate fluorophore conjugated antibodies diluted in FACS buffer for 1 hr. Gating strategy: Cells were then washed and incubated 30 min with a viability dye (propidium iodide at 1 ug/mL) and live cells only were analyzed by on a Guava flow cytometer with FlowJo software.

TPC1 cells [1] = assay: Flow cytometry of cell surface HLA and checkpoint ligands on TPC1 cells; format: cell-based, human; details: TPC1, 100 nM, 72 hours
Experimental: as §1

TPC1 cells [2] = assay: Mass spectrometry of eluted HLA class I presented peptides, TPC1 cells; format: cell-based, human
Experimental: After 72 hrs, cells were harvested, washed, lysed. The lysate was run through an activated Sepharose-CNBr column coupled to the W6/32 antibody to bind HLA-A,B,C from the cell. The peptides bound by those HLAs and captured on the column were then eluted and mass spectrometry was run on those peptides.
Immunopurification affinity columns were prepared as described previously (Bassani-Sternberg et al., 2015, Mol Cell Proteomics 14(3):658-673). In brief, 40 mg of Cyanogen bromide-activated-Sepharose® 4B (Sigma-Aldrich, Cat #C9142) was activated with 1 mM hydrochloric acid (Sigma-Aldrich, Cat #320331) for 30 min. Subsequently, 0.5 mg of W6/32 antibody (BioXCell, BE0079; RRID: AB 1107730) was coupled to sepharose in presence of binding buffer (150 mM sodium chloride, 50 mM sodium bicarbonate, pH 8.3; sodium chloride: Sigma-Aldrich, Cat #S9888, sodium bicarbonate: Sigma-Aldrich, Cat #56014) for at least 2 hours at room temperature. Sepharose was blocked for 1 h with glycine (Sigma-Aldrich, Cat #410225). Columns were equilibrated with PBS for 10 min. […]. Afterwards, cells were lysed in 1 ml 1% CHAPS (Sigma-Aldrich, Cat #C3023) in PBS, supplemented with 1 tablet of protease inhibitors (cOmplete, Cat #11836145001) for 1 hour at 4° C. This lysate was spun down for 1 hour at 20,000 g at 4° C. Supernatant was run over the affinity column through peristaltic pumps at 1 ml/min overnight at 4° C. Affinity columns were washed with PBS for 15 min, run dry, and HLA complexes subsequently eluted three times with 200 μl 1% trifluoracetic acid (TFA, Sigma/Aldrich, Cat #02031). For separation of HLA ligands from their HLA complexes tC18 columns (Sep-Pak tC18 1 cc VacCartridge, 100 mg Sorbent per Cartridge, 37-55 μm Particle Size, Waters, Cat #WAT036820) were prewashed with 80% acetonitrile (ACN, Sigma-Aldrich, Cat #34998) in 0.1% TFA and equilibrated with two washes of 0.1% TFA. Samples were loaded, washed again with 0.1% TFA and eluted in 400 μl 30% ACN in 0.1% TFA. Sample volume was reduced by vacuum centrifugation for mass spectrometry analysis.
Samples were analyzed by a high resolution/high accuracy LC-MS/MS (Lumos Fusion, Thermo Fisher). Peptides were desalted using ZipTips (Sigma Millipore, Cat. #ZTC18S008) according to manufactures instructions and concentrated using vacuum centrifugation prior to being separated using direct loading onto a packedin-emitter C18 column (75 um ID/12 cm, 3 μm particles, Nikkyo Technos Co., Ltd. Japan). The gradient was delivered at 300 nl/min increasing linear from 2% Buffer B (0.1% formic acid in 80% acetonitrile)/98% Buffer A (0.1% formic acid) to 30% Buffer B/70% Buffer A, over 70 minutes. MS and MS/MS were operated at resolutions of 60,000 and 30,000, respectively. Only charge states 1, 2 and 3 were allowed. 1.6 Th was chosen as the isolation window and the collision energy was set at 30%. For MS/MS, the maximum injection time was 100 ms with an AGC of 50,000.
Mass spectrometry data was processed using Byonic software (version 2.7.84, Protein Metrics, PaloAlto, Calif.) through a custom-built computer server equipped with 4 Intel Xeon E5-4620 8-core CPUs operating at 2.2 GHz, and 512 GB physical memory (Exxact Corporation, Freemont, Calif.). Mass accuracy for MS1 was set to 10 ppm and to 20 ppm for MS2, respectively. Digestion specificity was defined as unspecific and only precursors with charges 1, 2, and 3 and up to 2 kDa were allowed. Protein FDR was disabled to allow complete assessment of potential peptide identifications. Oxidization of methionine, N-terminal acetylation, phosphorylation of serine, threonine and tyrosine were set as variable modifications for all samples. All samples were searched against the UniProt Human Reviewed Database (20,349 entries, uniprot.org, downloaded June 2017). […]

TPC1 cells [3] = assay: RNA-seq of TPC1 cells after RET inhibitor treatment; format: cell-based, human; details: TPC1, 72 hours
Experimental: Purified polyA mRNA was subsequently fragmented, and first and second strand cDNA synthesis performed using standard Illumina mRNA TruSeq library preparation protocols. Double stranded cDNA was subsequently processed for TruSeq dual-index Illumina library generation. For sequencing, pooled multiplexed libraries were run on a HiSeq 2500 machine on RAPID mode. Approximately 10 million 76 bp single-end reads were retrieved per replicate condition. Resulting RNA-Seq data was analyzed by removing adaptor sequences using Trimmomatic, aligning sequencing data to GRCh37.75(hg19) with STAR, and genome wide transcript counting using HTSeq to generate a RPKM matrix of transcript counts. This RPKM matrix was further log (log 2) transformed and normalized per gene to obtain the Z-score. Differential gene expression was analyzed by looking at fold changes between experimental conditions.

[4] = Karpas 299 tumors, daily oral gavage
[5] = TPC1, 10 nM AST487 or 100 nM cabozantinib

With CCc1cc2c(cc1N1CCC(N3CCOCC3)CC1)C(C)(C)c1[nH]c3cc(C#N)ccc3c1C2=O [alectinib] the “PD-L1 levels in vitro” value (Karpas 299 cells; Karpas 299) was “dramatic decreases in PD-L1 were seen in vitro”, the “surface HLA-E levels” value (Karpas 299 cells; Karpas 299) was “did not change” and the “cell surface HLA-A,B,C” value (Karpas 299 cells; Karpas 299, 72 hrs, increasing concentrations) was “upregulates cell surface HLA”. For the same compound, the “HLA-A02 (BB7-FITC) surface level” value (Karpas 299 cells; Karpas299, alectinib 100 nM, 72 hours) was “led to upregulation of HLA”, the “cell surface HLA-A,B,C” value (SUDHL-1 cells) was “upregulates cell surface HLA” and the pERK levels (pERK in Karpas 299 cells) was “shut down pERK expression”. For the same compound, the pERK levels (pERK in SUDHL-1 cells) was “shut down pERK expression”, the “drop of PD-L1” value (Karpas 299 tumors; Karpas 299 tumors in NSG mice) was “approximately 75%” and the “tumor PD-L1 levels in vivo” value (Karpas 299 tumors; [4]) was “PD-L1 decreased with increasing doses”. The “tumor cell surface HLA-A,B,C in vivo” value (Karpas 299 tumors; [4]) was “increased modestly in a dose-dependent manner”, the “IFNα, IFNγ, IL4 secretion” value (Karpas299 cells) was “had no effect on IFNα, IFNγ, IL4” and the “IL6 and TNFα secretion” value (Karpas299 cells) was “reduced IL6 and TNFα secretion”. For the same compound, the “PD-L1 levels in vitro” value (SUP-M2 cells) was “dramatic decreases in PD-L1 were seen in vitro”.

COc1cc2nccc(Oc3ccc(NC(=O)C4(C(=O)Nc5ccc(F)cc5)CC4)cc3)c2cc1OC [cabozantinib] was tested, and the “increase in surface HLA (pan-HLA)” value (TPC1 cells [1]) was ~4 fold, the “increase in surface HLA-A*02” value (TPC1 cells [1]) was 4 fold and the “runs TEIPP peptide was found in (n = 3)” value (TPC1 cells [2]; ALFSFVTAL (SEQ ID NO: 11)) was 0. The “runs TEIPP peptide was found in (n = 3)” value (TPC1 cells [2]; FLGPWPAAS (SEQ ID NO: 12)) was 1, the “runs TEIPP peptide was found in (n = 3)” value (TPC1 cells [2]; FLSELQYYL (SEQ ID NO: 13)) was 0 and the “runs TEIPP peptide was found in (n = 3)” value (TPC1 cells [2]; FLYPFLSHL (SEQ ID NO: 14)) was 0. For the same compound, the “runs TEIPP peptide was found in (n = 3)” value (TPC1 cells [2]; ILEYLTAEV (SEQ ID NO: 15)) was 0, the “runs TEIPP peptide was found in (n = 3)” value (TPC1 cells [2]; LLALAAGLAV (SEQ ID NO: 16)) was 0 and the “runs TEIPP peptide was found in (n = 3)” value (TPC1 cells [2]; LLLDVPTAAV (SEQ ID NO: 17)) was 1. The “runs TEIPP peptide was found in (n = 3)” value (TPC1 cells [2]; LLLSAEPVPA (SEQ ID NO: 18)) was 0, the “runs TEIPP peptide was found in (n = 3)” value (TPC1 cells [2]; LLWGRQLFA (SEQ ID NO: 19)) was 0 and the “runs TEIPP peptide was found in (n = 3)” value (TPC1 cells [2]; LSEKLERI (SEQ ID NO: 20)) was 0. For the same compound, the “runs TEIPP peptide was found in (n = 3)” value (TPC1 cells [2]; LTLLGTLWGA (SEQ ID NO: 21)) was 0, the “runs TEIPP peptide was found in (n = 3)” value (TPC1 cells [2]; SVLWLGALGL (SEQ ID NO: 22)) was 0 and the “runs TEIPP peptide was found in (n = 3)” value (TPC1 cells [2]; TLLGASLPA (SEQ ID NO: 23)) was 0. The “new peptides (only peptides found in all three runs counted)” value (TPC1 cells [2]; [5]) was 492, the “unique peptides not present in the DMSO group (found in at least one run)” value (TPC1 cells [2]; [5]) was 1642 and the unique ligands presented (TPC1 cells [2]; TPC1, 10 nM AST487 or 100 nM cabozantinib, three runs pooled, DMSO 4211) was 4850. For the same compound, the “increase in unique peptides vs DMSO” value (TPC1 cells [2]; TPC1, three runs pooled) was 15%, the “unique HLA ligands detected in all 3 runs” value (TPC1 cells [2]; TPC1, DMSO 195) was 639 and the “runs TEIPP peptide was found in (n = 3)” value (TPC1 cells [2]; VIIKPLVWV (SEQ ID NO: 24)) was 0. The “runs TEIPP peptide was found in (n = 3)” value (TPC1 cells [2]; VLAVFIKAV (SEQ ID NO: 25)) was 0, the “runs TEIPP peptide was found in (n = 3)” value (TPC1 cells [2]; VLLDHLSLA (SEQ ID NO: 26)) was 0 and the “genes upregulated at least two-fold” value (TPC1 cells [3]) was 50.
